The values that follow come from patent US11613542B2, “Sulfonylureas and sulfonylthioureas as NLRP3 inhibitors” (Inflazome Limited, priority 2017, dated 2023).

SMILES strings stand for the structures. Where a name gives a salt, the structure may show the parent alone.

A short description of series [1]: Pharmacokinetic parameters in male Sprague Dawley rats (intravenous and oral administration). The conditions noted are these: rat plasma, dose per compound (mg/kg). In kind it is in vivo. As to the method: Pharmacokinetic parameters were determined in male Sprague Dawley rats (Charles River, UK, 250-350 g; or Vital River Laboratory Animal Technology Co Ltd, Beijing, China, 7-9 weeks old). Animals were individually housed during the study and maintained under a 12 h light/dark cycle. Animals had free access to food and water except that some orally dosed animals were food deprived overnight prior to the study.
For intravenous administration, compounds were formulated as a solution in water or DMSO:PBS [10:90] in 2 mL/kg dosing volume and administered via tail vein. For oral administration, compounds were formulated as a solution in water or DMSO:water [10:90] in 5 mL/kg dosing volume and administered orally.
Serial blood samples (about 120-300 μL) were taken from each animal at each of 8 time-points post dose (0.083, 0.25, 0.5, 1, 2, 4, 8 and 24 h) or at each of 12 time-points post dose (0.03, 0.1, 0.17, 0.25, 0.5, 1, 2, 4, 6, 8,12 and 24 h) or pre-dose and at each of 9 time-points post dose (0.25, 0.5, 1, 2, 4, 6, 8, 12 and 24 h). Samples were held on ice for no longer than 30 minutes before centrifugation (10,000 rpm (8,385 g) for 3 minutes; or 5,696 rpm (3,000 g) for 15 minutes) for plasma generation. Plasma was frozen on dry ice prior to bioanalysis. PK parameters were generated from LC-MS/MS data using Dotmatics or Phoenix WinNonlin 6.3 software.

A further series concerns the target NLRP3 (Homo sapiens, UniProt Q96P20). The series is described as follows: THP-1 cells pyroptosis assay. The class given is cell-based. Details: Seed THP-1 cells (25,000 cells/well) containing 1.0 μg/ml LPS; host or cells: THP-1 cells, LPS-primed, nigericin-stimulated. As to conditions: THP-1 cells, 1.0 μg/ml LPS, compound 3 hrs, nigericin 5 μM 1 hr, resazurin readout; read-out: THP IC50. The text has this:
NLRP and Pyroptosis It is well established that the activation of NLRP3 leads to cell pyroptosis and this feature plays an important part in the manifestation of clinical disease (Yan-gang Liu et al., Cell Death &Disease, 2017, 8(2), e2579; Alexander Wree et al., Hepatology, 2014, 59(3), 898-910; Alex Baldwin et al., Journal of Medicinal Chemistry, 2016, 59(5), 1691-171; Ema Ozaki et al., Journal of Inflammation Research, 2015, 8, 15-27; Zhen Xie & Gang Zhao, Neuroimmunology Neuroinflammation, 2014, 1(2), 60-65; Mattia Cocco et al., Journal of Medicinal Chemistry, 2014, 57(24), 10366-10382; T. Satoh et al., Cell Death &Disease, 2013, 4, e644). Therefore, it is anticipated that inhibitors of NLRP3 will block pyroptosis, as well as the release of pro-inflammatory cytokines (e.g. […]) from the cell. THP-1 Cells: Culture and Preparation THP-1 cells (ATCC #TIB-202) were grown in RPMI containing L-glutamine (Gibco #11835) supplemented with imM sodium pyruvate (Sigma #S8636) and penicillin (100 units/ml)/streptomycin (0.1 mg/ml) (Sigma #P4333) in 10% Fetal Bovine Serum (FBS) (Sigma #Fo804). The cells were routinely passaged and grown to confluency (˜10^6 cells/ml). On the day of the experiment, THP-1 cells were harvested and resuspended into RPMI medium (without FBS). The cells were then counted and viability (>90%) checked by Trypan blue (Sigma #T8154). Appropriate dilutions were made to give a concentration of 625,000 cells/ml. To this diluted cell solution was added LPS (Sigma #L4524) to give a […] Final Assay Concentration (FAC). 40 μl of the final preparation was aliquoted into each well of a 96-well plate. The plate thus prepared was used for compound screening. THP-1 Cells Pyroptosis Assay The following method step-by-step assay was followed for compound screening. • 1. Seed THP-1 cells (25,000 cells/well) containing 1.0 μg/ml LPS in 40 μl of RPMI medium (without FBS) in 96-well, black walled, clear bottom cell culture plates coated with poly-D-lysine (VWR #734-0317) • 2. Add […] compound (8 points half-log dilution, with 10 μM top dose) or vehicle (DMSO 0.1% FAC) to the appropriate wells • 3. […] Add 5 μl nigericin (Sigma #N7143) (FAC 5 μM) to all wells • 5. […] At the end of the incubation period, spin plates at 300 xg for 3 mins and remove supernatant • 7. Then add 50 μl of resazurin (Sigma #R7017) (FAC 100μ M resazurin in RPMI medium without FBS) and incubate plates for a further 1-2 hrs at 37° C. and 5% CO2 • 8. Plates were read in an Envision reader at Ex 560 nm and Em 590 nm • 9. IC50 data is fitted to a non-linear regression equation (log inhibitor vs response-variable slope 4-parameters) [table]

Sequence of NLRP3 (Q96P20 whole entry): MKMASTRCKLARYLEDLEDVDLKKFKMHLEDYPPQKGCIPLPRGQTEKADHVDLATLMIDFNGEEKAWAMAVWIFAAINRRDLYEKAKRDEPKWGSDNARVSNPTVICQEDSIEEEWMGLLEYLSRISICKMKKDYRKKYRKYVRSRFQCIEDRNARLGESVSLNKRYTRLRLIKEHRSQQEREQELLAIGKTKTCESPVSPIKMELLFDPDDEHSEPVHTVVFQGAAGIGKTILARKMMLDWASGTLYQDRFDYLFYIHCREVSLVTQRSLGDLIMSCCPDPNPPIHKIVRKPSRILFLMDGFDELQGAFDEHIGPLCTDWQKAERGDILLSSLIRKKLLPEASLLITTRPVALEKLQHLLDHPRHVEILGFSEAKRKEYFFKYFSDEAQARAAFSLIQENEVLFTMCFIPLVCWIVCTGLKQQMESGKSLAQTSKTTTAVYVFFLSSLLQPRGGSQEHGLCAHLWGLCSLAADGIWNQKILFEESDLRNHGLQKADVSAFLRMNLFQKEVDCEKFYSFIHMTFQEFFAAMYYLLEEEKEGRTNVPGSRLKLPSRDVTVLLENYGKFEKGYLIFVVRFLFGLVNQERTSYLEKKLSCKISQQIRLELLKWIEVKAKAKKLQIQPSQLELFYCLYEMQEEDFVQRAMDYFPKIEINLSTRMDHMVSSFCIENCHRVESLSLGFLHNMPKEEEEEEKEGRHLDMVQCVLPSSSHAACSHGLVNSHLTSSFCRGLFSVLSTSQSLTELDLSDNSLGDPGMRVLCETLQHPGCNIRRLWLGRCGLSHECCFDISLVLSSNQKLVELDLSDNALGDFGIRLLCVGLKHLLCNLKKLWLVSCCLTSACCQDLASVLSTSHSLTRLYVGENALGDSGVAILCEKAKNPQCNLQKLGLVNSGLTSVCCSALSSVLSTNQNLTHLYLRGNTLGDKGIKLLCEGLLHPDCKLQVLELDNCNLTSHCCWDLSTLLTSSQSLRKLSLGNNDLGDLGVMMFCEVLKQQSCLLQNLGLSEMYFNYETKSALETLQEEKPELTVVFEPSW

As for `CC(C)c1cc(Cl)cc(C(C)C)c1NC(=O)NS(=O)(=O)c1cc(C(=O)N(C)C)n(C)n1` [Example 168, 3-(N-((4-Chloro-2,6-diisopropylphenyl)carbamoyl)sulfamoyl)-N,N,1-trimethyl-1H-pyrazole-5-carboxamide], in series [1] (intravenous administration), the AUC turned out to be 353.3 ng·h/mL, the Cl is listed as 160.9 mL/min/kg, the T1/2 came to 1.3 h and the Vdss came to 10.55 L/kg.

Turning to `CN(C)CCn1cc(S(=O)(=O)NC(=O)Nc2c3c(cc4c2CCC4)CCC3)cn1` [Example 182, 1-(2-(Dimethylamino)ethyl)-N-((1,2,3,5,6,7-hexahydro-s-indacen-4-yl)carbamoyl)-1H-pyrazole-4-sulfonamide], the concentration for half-maximal inhibition (IC50) on NLRP3 was < 2560 nM.

For the molecule `Cn1nc(S(=O)(=O)NC(=O)Nc2c3c(cc4c2CCC4)CCC3)cc1C(=O)NCCO` [Example 174, 3-(N-((1,2,3,5,6,7-Hexahydro-s-indacen-4-yl)carbamoyl)sulfamoyl)-N-(2-hydroxyethyl)-1-methyl-1H-pyrazole-5-carboxamide, partial ammonium salt], the half-maximal inhibitory concentration (IC50) on NLRP3 is < 10000 nM.

In series [1] (intravenous administration), `CC(C)c1cc(F)cc(-c2cccc(C#N)c2)c1NC(=O)NS(=O)(=O)c1cc(CN(C)C)n(C)n1` [Example 66, N-((3′-Cyano-5-fluoro-3-isopropyl-[1,1′-biphenyl]-2-yl)carbamoyl)-5-((dimethylamino)methyl)-1-methyl-1H-pyrazole-3-sulfonamide] gave an AUC of 375.4 ng·h/mL, a Cl of 51.5 mL/min/kg, a T1/2 of 1.2 h and a Vdss of 1.14 L/kg.

For `CC(C)c1cc(F)cc(C(C)C)c1NC(=O)NS(=O)(=O)c1cc(CN(C)CCO)n(C)n1` [Example 123, N-((4-Fluoro-2,6-diisopropylphenyl)carbamoyl)-5-(((2-hydroxyethyl)(methyl)amino)methyl)-1-methyl-1H-pyrazole-3-sulfonamide], the IC50 on NLRP3 is < 640 nM.

As to `Cc1cc(-c2cc(F)cc(C(C)C)c2NC(=O)NS(=O)(=O)c2cc(CN(C)C)n(C)n2)n(C)n1` [Example 60, N-((2-(1,3-Dimethyl-1H-pyrazol-5-yl)-4-fluoro-6-isopropylphenyl)carbamoyl)-5-((dimethylamino)methyl)-1-methyl-1H-pyrazole-3-sulfonamide], in series [1] (intravenous administration), the AUC came to 259.1 ng·h/mL, the Cl amounted to 65.6 mL/min/kg, the T1/2 was determined as 0.5 h and the Vdss is on record as 0.98 L/kg.

Take `CC(C)c1cc(F)cc(C2CCOCC2)c1NC(=O)NS(=O)(=O)c1cc(C(=O)N(C)C)n(C)n1` [Example 133, 3-(N-((4-Fluoro-2-isopropyl-6-(tetrahydro-2H-pyran-4-yl)phenyl)carbamoyl)sulfamoyl)-N,N,1-trimethyl-1H-pyrazole-5-carboxamide, sodium salt]: in series [1] (intravenous administration), the exposure (AUC) stood at 182.5 ng·h/mL, the Cl turned out to be 91.3 mL/min/kg, the T1/2 worked out at 2.3 h and the Vdss was 2.72 L/kg.

In series [1] (intravenous administration), `CC(C)c1cc(F)cc(-c2cccnc2)c1NC(=O)NS(=O)(=O)c1cc(C(=O)N(C)C)n(C)n1` [Example 141, 3-(N-((4-Fluoro-2-isopropyl-6-(pyridin-3-yl)phenyl)carbamoyl)sulfamoyl)-N,N,1-trimethyl-1H-pyrazole-5-carboxamide, sodium salt] gave an exposure (AUC) of 274.4 ng·h/mL, a Cl of 60.7 mL/min/kg, a T1/2 of 6.3 h and a Vdss of 3.95 L/kg.

Turning to `CCn1nc(S(=O)(=O)NC(=O)Nc2c(-c3ccnc(OC)c3)ccc3c2CCC3)cc1CN(C)C` [Example 37, 5-((Dimethylamino)methyl)-1-ethyl-N-((5-(2-methoxypyridin-4-yl)-2,3-dihydro-1H-inden-4-yl)carbamoyl)-1H-pyrazole-3-sulfonamide], in series [1] (intravenous administration), the AUC came out at 2710.4 ng·h/mL, the Cl was found to be 10.5 mL/min/kg, the T1/2 worked out at 3.8 h and the Vdss came to 1.23 L/kg.

For the molecule `COc1cc(-c2cc(F)cc(C(C)C)c2NC(=O)NS(=O)(=O)c2cc(CN(C)C)n(C(C)C)n2)ccn1` [Example 67, 5-((Dimethylamino)methyl)-N-((4-fluoro-2-isopropyl-6-(2-methoxypyridin-4-yl)phenyl)carbamoyl)-1-isopropyl-1H-pyrazole-3-sulfonamide], in series [1] (intravenous administration), the AUC amounted to 247.8 ng·h/mL, the Cl is 67.2 mL/min/kg, the T1/2 is 0.3 h and the Vdss turned out to be 1.32 L/kg.

With `COc1cc(-c2cc(F)cc(C(C)C)c2NC(=O)NS(=O)(=O)c2cc(CN(C)C)n(C)n2)ccn1` [Example 68, 5-((Dimethylamino)methyl)-N-((4-fluoro-2-isopropyl-6-(2-methoxypyridin-4-yl)phenyl)carbamoyl)-1-methyl-1H-pyrazole-3-sulfonamide], in series [1] (intravenous administration), the exposure (AUC) worked out at 356.0 ng·h/mL, the Cl worked out at 47.6 mL/min/kg, the T1/2 was found to be 0.5 h and the Vdss is given as 0.8 L/kg.

Turning to `CC(C)c1cc(F)cc(-c2cccnc2)c1NC(=O)NS(=O)(=O)c1cc(CN(C)C)n(C)n1` [Example 61, 5-((Dimethylamino)methyl)-N-((4-fluoro-2-isopropyl-6-(pyridin-3-yl)phenyl)carbamoyl)-1-methyl-1H-pyrazole-3-sulfonamide], in series [1] (intravenous administration), the exposure (AUC) was 259.0 ng·h/mL, the Cl is recorded as 64.9 mL/min/kg, the T1/2 worked out at 0.5 h and the Vdss worked out at 0.75 L/kg.

On to `CC(C)c1cc(F)cc(-c2cnn(C)c2)c1NC(=O)NS(=O)(=O)c1cc(C(=O)N(C)C)n(C)n1` [Example 135, 3-(N-((4-Fluoro-2-isopropyl-6-(1-methyl-1H-pyrazol-4-yl)phenyl)carbamoyl)sulfamoyl)-N,N,1-trimethyl-1H-pyrazole-5-carboxamide, sodium salt], for which, in series [1] (intravenous administration), the area under the curve (AUC) was found to be 661.2 ng·h/mL, the Cl is 25.2 mL/min/kg, the T1/2 was determined as 12.1 h and the Vdss is reported as 3.03 L/kg.

For `CC(c1cc(S(=O)(=O)NC(=O)Nc2c3c(cc4c2CCC4)CCC3)nn1C)N(C)C` (single isomer, unassigned; enantiomer 2) [Example 90, 5-(1-(Dimethylamino)ethyl)-N-((1,2,3,5,6,7-hexahydro-s-indacen-4-yl)carbamoyl)-1-methyl-1H-pyrazole-3-sulfonamide, Enantiomer 2], the CL/F in series [1] (male, Sprague Dawley, oral administration) worked out at 6 mL/min/kg. In series [1] (male, Sprague Dawley, oral administration, read-out: Tmax), the Tmax was 0.5 h. Moreover, in series [1] (oral administration), the AUC amounted to 11115.9 ng·h/mL, the maximum concentration (Cmax) stood at 5665.0 ng/mL and the T1/2 was 1.1 h.
